Assay results from patent US20120010177A1, “MicroRNA Modulators and Method for Identifying And Using The Same” (The Wistar Institute / North Carolina State University, priority 2008, published 2012).
Like-named read-outs stand apart in the source and are kept apart here.

Legend:
[1] = test system: miR-21; assay: miR-21 luciferase reporter (Luc-miR-21) screening assay in HeLa cells; format: cell-based, human; conditions: HeLa Luc-miR-21 reporter; for increase of the luciferase signal: 48 hours, compared to untreated cells
Excerpt: (§1) MicroRNA miR-21 was selected as a target miRNA due to its involvement as an anti-apoptotic factor in cancer cells and its elevated levels in various cancers such as breast, ovarian, and lung cancer as well as glioblastoma (Chan, et al. (2005) Cancer Res. 65:6029). Lentiviral reporter constructs for miRNA activity were assembled by introducing the complementary sequences of mature miR-21 (5′-UAGCUUAUCAGACUGAUGUUGA-3′; SEQ ID NO:13), miR-30A (5′-CUUUCAGUCGGAUGUUUGCAGC-3′; SEQ ID NO:14) as a specificity control, and a linker sequence (a previously present multiple-cloning site with no detectable recognition by natural miRNAs) downstream of a luciferase reporter gene as a negative control (FIG. 1).
(§2) Luc-miR-21, Luc-miR-30A, and Luc-linker (control) were, by viral infection, introduced into HeLa cells, which express high levels of miR-21, but only low levels of miR-30A (Cheng, et al. (2005) Nucl. Acids Res. 33:1290).
To illustrate the method of the present invention, a primary screen of >1000 compounds was conducted. The library was composed of a collection of novel compounds and the Library of Pharmacologically Active Compounds (LOPAC library, Sigma-Aldrich, St Louis, Mo.). All compounds were stored at a 10 mM concentration in DMSO to keep the DMSO concentration in the actual screen at 0.1% thereby minimizing toxicity. HeLa cells stably expressing the miR-reporter were treated with DMSO ranging from 0.1-1%. Luciferase signals were determined 48 hours after the treatment.
HeLa cells (2500 cells) were plated in each well of 384-well plate 24 hour before the addition of compounds. Compounds at 10 μM final concentration were added to each well. Luciferase signal were determined 48 hours after compound treatment. Using this screening assay, compound 1 was identified as a miR-21 antagonist.

[2] = test system: Luc-Linker control; assay: Luc-linker control luciferase reporter in HeLa cells; format: cell-based, human; conditions: 10 μM, relative to DMSO control
Excerpt: as §1, §2
(§3) It was subsequently determined whether Compound 2 was a specific inhibitor of miR-21 or whether it could interfere with the general miRNA biogenesis pathway. Thus, HeLa cells stably expressing both the miR-30 luciferase reporter construct and miR-30 were treated with Compound 2.

[3] = test system: miR-30; assay: miR-30 luciferase reporter in HeLa cells stably expressing miR-30; format: cell-based, human; conditions: HeLa cells stably expressing miR-30 reporter and miR-30, 10 μM
Excerpt: as §1
The specificity of the reporter system was tested by assaying cells which contained both the Luc-miR-30A reporter and a construct expressing exogenous miR-30.
as §3

[4] = test system: mature miR-21; assay: Quantitative RT-PCR of mature miR-21; format: cell-based, human; conditions: for miR-21 RT PCR* (% Decrease as compared to DMSO control): Table 2; for mature miR-21 expression: HCT116 colon cancer cells and A172 glioblastoma cells, FIG. 6B
Excerpt: (§4) UNG (Applied Biosystems). […] (Sigma).

[5] = test system: mature miR-30; assay: Quantitative RT-PCR of mature miR-30; format: cell-based, human; conditions: for mature miR-30 level (% of DMSO control): Table 2
Excerpt: as §4

[6] = test system: mature miR-93; assay: Quantitative RT-PCR of mature miR-93; format: cell-based, human; conditions: for mature miR-93 level, % of DMSO control: Table 2
Excerpt: as §4

[7] = test system: primary miR-21 (pri-miR-21); assay: Quantitative RT-PCR of primary miR-21; format: cell-based, human; conditions: for primary miR-21 expression: HCT116 colon cancer cells and A172 glioblastoma cells, FIG. 6A
Excerpt: as §4

[8] = test system: HEK293T (human embryonic kidney) cells; assay: Cell viability assay, HEK293T cells; format: cell-based; conditions: 10 μM Compound
Excerpt: (§5) In these assays, A172 cells (glioblastoma cells) were contacted with a miR-21 inhibitor either alone or in combination with a conventional antiproliferative agent (i.e., 5-fluorouracil or curcumin). At the concentrations indicated, no toxic effects on HEK293T (human embryonic kidney) cells were observed.

[9] = test system: A172 cells (glioblastoma cells); assay: Cell viability assay, A172 cells, alone or with antiproliferative agent; format: cell-based; conditions: Homo sapiens, A 172
Excerpt: as §5

[10] = test system: HCT116 colon cancer cells; assay: Cell proliferation of HCT116 cells, drug combinations; format: cell-based, human
Excerpt: The % activity indicates % live cell activity.

[11] = test system: miR-21; assay: High throughput primary miR-21 FLuc reporter assay (concentration-response); format: cell-based, human; conditions: Table 12 singletons, read-out: AC50
In short: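 HeLa cells carrying a Luc-miR-21 firefly luciferase reporter were treated with compound for 48 h. miR-21 inhibition was read as increased luciferase signal. Concentration-response data were fitted with a four-parameter logistic model.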

[12] = MDA-MB-231, MCF-7 and A172 cell lines
[13] = HeLa cells, 10 μM, relative to DMSO
[14] = 10 μM Compound + 5FU 0.5 μM, read-out: Cell Viability A172 Cells, Compound + 5FU (0.5 μM)
[15] = 10 μM Compound + Curcumin 10 μM, read-out: Cell Viability A172 Cells, Compound + Curcumin (10 μM)
[16] = 10 μM Compound alone, read-out: Cell Viability A172 Cells, Compound

For Nc1ccc(/N=N/c2ccc([N+](=O)[O-])cc2)cc1 [Compound 1], which “increase of the luciferase signal” value ([1]; 10 μM) is on record?
Its value is 251%.

For C#CCNC(=O)c1ccc(/N=N/c2ccccc2)cc1 [Compound 2, (E)-4-(Phenyldiazenyl)-N-(prop-2-ynyl)benzamide], which “fold increase of the luciferase signal” value ([1]; 10 μM) is on record?
Its value is 5 fold.

What about the “increase of the luciferase signal” value ([1]; 10 μM) of the same compound?
Its value is 485%.

What about the EC50 ([1]; Homo sapiens, concentration dependent, read-out: EC50 of increase of luciferase signal) of the same compound?
Its EC50 is 2 µM.

And the “luciferase signal in HeLa cells expressing the Luc-Linker control” value [2]?
The value was “did not affect the luciferase signal”.

And the “luciferase signal of miR-30 luciferase reporter” value [3]?
Its value is “no increase of the luciferase signal was detected”.

What about the “mature miR-21 level” value [4, 12] of the same compound?
The value was “suppressed”.

What about the “miR-21 RT PCR* (% Decrease as compared to DMSO control)” value [4] of the same compound?
Its value is 22%.

What about the “level of exogenous mature miR-30” value [5, 13] of the same compound?
Its value is “not reduced”.

And the “mature miR-30 level” value [5, 12]?
The value was “no effect”.

What about the “mature miR-30 level (% of DMSO control)” value [5] of the same compound?
Its value is 110%.

And the “level of endogenous mature miR-93” value [6, 13]?
Its value is “not reduced”.

What about the “mature miR-93 level” value [6, 12] of the same compound?
Its value is “no effect”.

What about the “mature miR-93 level, % of DMSO control” value [6] of the same compound?
The value was 115%.

And the “reduction of primary miR-21 (pri-miR-21) level” value ([7]; HeLa cells, 10 μM, compared to DMSO control)?
Its value is 87%.

What about the “primary miR-21 level” value [7, 12] of the same compound?
The value was “suppressed”.

And the “Cell Viability HEK293T Cells” value [8]?
The value was 98%.

And the viability at 10 µM [9, 14]?
Its viability at 10 µM is 8%.

And the viability at 10 µM [9, 15]?
Its viability at 10 µM is 12%.

What about the viability at 10 µM [9, 16] of the same compound?
The viability at 10 µM was 84%.

And the “proliferation of HCT116 colon cancer cells, combination with 5-FU” value ([10]; FIG. 5A)?
The value was “synergistically decrease”.

What about the “proliferation of HCT116 colon cancer cells, combination with Curcumin” value ([10]; FIG. 5B) of the same compound?
The value was “synergistically decrease”.

Which results are given for C#CCNC(=O)c1ccc(NNc2ccccc2)cc1 [Compound 3]?
miR-21 RT PCR* (% Decrease as compared to DMSO control) [4]: 39%; mature miR-30 level (% of DMSO control) [5]: 85%; mature miR-93 level, % of DMSO control [6]: 56%; Cell Viability HEK293T Cells [8]: 95%; viability at 10 µM [9, 14]: 52%; viability at 10 µM [9, 15]: 56%; viability at 10 µM [9, 16]: 75%

Cn1c2c(c3ccccc3c1=O)C(=O)c1cc3c(cc1-2)OCO3 [Compound 4] was tested. Which “miR-21 RT PCR* (% Decrease as compared to DMSO control)” value [4] did it give?
The value was 12%.

What about the “mature miR-30 level (% of DMSO control)” value [5] of the same compound?
Its value is 136%.

And the “mature miR-93 level, % of DMSO control” value [6]?
Its value is 116%.

And the “Cell Viability HEK293T Cells” value [8]?
Its value is 98%.

And the viability at 10 µM [9, 14]?
Its viability at 10 µM is 62%.

What about the viability at 10 µM [9, 15] of the same compound?
The viability at 10 µM was 54%.

And the viability at 10 µM [9, 16]?
The viability at 10 µM was 66%.

O=c1[nH]cc(F)c(=O)[nH]1 [Compound 5-FU, 5-fluorouracil, reference compound] was tested. Which “mature miR-21 expression” value [4] did it give?
The value was “increased”.

What about the “primary miR-21 expression” value [7] of the same compound?
Its value is “increased”.

Which results are given for O=C1c2cc3c(cc2-c2[nH]c(=O)c4ccccc4c21)OCO3 [Compound 5]?
Cell Viability HEK293T Cells [8]: 79%; viability at 10 µM [9, 14]: 45%; viability at 10 µM [9, 15]: 40%; viability at 10 µM [9, 16]: 70%

What does the source list for COc1ccc2c(c1[N+](=O)[O-])CCC1C2CC[C@]2(C)C(=O)CCC12 (some centres unmarked) [Compound 6]?
miR-21 RT PCR* (% Decrease as compared to DMSO control) [4]: 34%; mature miR-30 level (% of DMSO control) [5]: 73%; mature miR-93 level, % of DMSO control [6]: 83%; Cell Viability HEK293T Cells [8]: 97%; viability at 10 µM [9, 14]: 47%; viability at 10 µM [9, 15]: 39%; viability at 10 µM [9, 16]: 71%

What does the source list for COc1ccc2c(c1N)CCC1C2CC[C@]2(C)C(=O)CCC12 (some centres unmarked) [Compound 7]?
Cell Viability HEK293T Cells [8]: 86%; viability at 10 µM [9, 14]: 54%; viability at 10 µM [9, 15]: 43%; viability at 10 µM [9, 16]: 87%

Which results are given for COc1cc2c(cc1N)C1CC[C@]3(C)C(=O)CCC3C1CC2 (some centres unmarked) [Compound 8]?
Cell Viability HEK293T Cells [8]: 89%; viability at 10 µM [9, 14]: 78%; viability at 10 µM [9, 15]: 57%; viability at 10 µM [9, 16]: 100%

For COC(=O)C1C(=O)C=C(Nc2ccc(F)cc2F)CC1c1ccccc1 (centres unmarked) [Compound 343], which AC50 [11] is on record?
Its AC50 is 18.5 µM.

How did the AC50 ([11]; Homo sapiens) turn out when CCNc1ccc(/N=N/c2c(C)n(C)n(-c3ccccc3)c2=O)cc1 [Compound 344] was run?
Its AC50 is 16.5 µM.

How did the AC50 ([11]; Homo sapiens) turn out when O=C(CN1c2ccc(Br)cc2-c2ccccc2[S+]1(=O)[O-])N1CCCCC1 [Compound 345] was run?
The AC50 was 9.27 µM.

For Cc1ccc2oc(=O)c(/C=C(\O)c3cccs3)nc2c1 [Compound 346], which AC50 ([11]; Homo sapiens) is on record?
The AC50 was 14.7 µM.

With COc1ccc(C2Nc3ccccc3C(=O)N2c2ccc(C)cc2)cc1Cn1nc(C)c([N+](=O)[O-])c1C (centres unmarked) [Compound 347] as the compound, how does the AC50 ([11]; Homo sapiens) read?
The AC50 was 3.09 µM.

What does the source list for COc1cc(/C=C/C(=O)CC(=O)/C=C/c2ccc(O)c(OC)c2)ccc1O [Curcumin, curcumin, reference compound]?
mature miR-21 expression [4]: increased; primary miR-21 expression [7]: increased

For C[C@]12CC[C@@H]3c4ccc(O)cc4CC[C@H]3[C@@H]1CCC2=O [estrone, reference compound], which “Cell Viability HEK293T Cells” value [8] is on record?
Its value is 85%.
